# Assay results: ChEMBL document CHEMBL4665642, “Anticancer profile of newly synthesized BRAF inhibitors possess 5-(pyrimidin-4-yl)imidazo[2,1-b]thiazole scaffold” (Bioorg Med Chem, 2019)
# Key:
# Format in all cases: functional
# Conditions in all cases: read-out: Activity
# MDA-MB-468 = assay: Cytotoxicity against human MDA-MB-468 cells assessed as cell viability at 10 uM incubated for 48 hrs by sulforhodamine B assay relative to control
# BT-549 = assay: Cytotoxicity against human BT-549 cells assessed as cell viability at 10 uM incubated for 48 hrs by sulforhodamine B assay relative to control
# Hs-578T = assay: Cytotoxicity against human HS-578T cells assessed as cell viability at 10 uM incubated for 48 hrs by sulforhodamine B assay relative to control
# MDA-MB-231 = assay: Cytotoxicity against human MDA-MB-231 cells assessed as cell viability at 10 uM incubated for 48 hrs by sulforhodamine B assay relative to control
# DU-145 = assay: Cytotoxicity against human DU-145 cells assessed as cell viability at 10 uM incubated for 48 hrs by sulforhodamine B assay relative to control
# PC-3 = assay: Cytotoxicity against human PC-3 cells assessed as cell viability at 10 uM incubated for 48 hrs by sulforhodamine B assay relative to control
# TK-10 = assay: Cytotoxicity against human TK-10 cells assessed as cell viability at 10 uM incubated for 48 hrs by sulforhodamine B assay relative to control
# SN12C = assay: Cytotoxicity against human SN12C cells assessed as cell viability at 10 uM incubated for 48 hrs by sulforhodamine B assay relative to control
# ACHN = assay: Cytotoxicity against human ACHN cells assessed as cell viability at 10 uM incubated for 48 hrs by sulforhodamine B assay relative to control
# 786-0 = assay: Cytotoxicity against human 786-0 cells assessed as cell viability at 10 uM incubated for 48 hrs by sulforhodamine B assay relative to control
# NCI/ADR-RES = assay: Cytotoxicity against human NCI/ADR-RES cells assessed as cell viability at 10 uM incubated for 48 hrs by sulforhodamine B assay relative to control
# OVCAR-8 = assay: Cytotoxicity against human OVCAR-8 cells assessed as cell viability at 10 uM incubated for 48 hrs by sulforhodamine B assay relative to control
# OVCAR-5 = assay: Cytotoxicity against human OVCAR-5 cells assessed as cell viability at 10 uM incubated for 48 hrs by sulforhodamine B assay relative to control
# OVCAR-4 = assay: Cytotoxicity against human OVCAR-4 cells assessed as cell viability at 10 uM incubated for 48 hrs by sulforhodamine B assay relative to control
# OVCAR-3 = assay: Cytotoxicity against human OVCAR-3 cells assessed as cell viability at 10 uM incubated for 48 hrs by sulforhodamine B assay relative to control
# IGROV-1 = assay: Cytotoxicity against human IGROV-1 cells assessed as cell viability at 10 uM incubated for 48 hrs by sulforhodamine B assay relative to control
# UACC-62 = assay: Cytotoxicity against human UACC-62 cells assessed as cell viability at 10 uM incubated for 48 hrs by sulforhodamine B assay relative to control
# SK-MEL-28 = assay: Cytotoxicity against human SK-MEL-28 cells assessed as cell viability at 10 uM incubated for 48 hrs by sulforhodamine B assay relative to control
# MDA-MB-435 = assay: Cytotoxicity against human MDA-MB-435 cells assessed as cell viability at 10 uM incubated for 48 hrs by sulforhodamine B assay relative to control
# M14 = assay: Cytotoxicity against human M14 cells assessed as cell viability at 10 uM incubated for 48 hrs by sulforhodamine B assay relative to control
# CCRF-CEM = assay: Cytotoxicity against human CCRF-CEM cells assessed as cell viability at 10 uM incubated for 48 hrs by sulforhodamine B assay relative to control
# HL-60(TB) = assay: Cytotoxicity against human HL-60(TB) cells assessed as cell viability at 10 uM incubated for 48 hrs by sulforhodamine B assay relative to control
# K562 = assay: Cytotoxicity against human K562 cells assessed as cell viability at 10 uM incubated for 48 hrs by sulforhodamine B assay relative to control
# MOLT-4 = assay: Cytotoxicity against human MOLT-4 cells assessed as cell viability at 10 uM incubated for 48 hrs by sulforhodamine B assay relative to control
# RPMI-8226 = assay: Cytotoxicity against human RPMI-8226 cells assessed as cell viability at 10 uM incubated for 48 hrs by sulforhodamine B assay relative to control
# SR = assay: Cytotoxicity against human SR cells assessed as cell viability at 10 uM incubated for 48 hrs by sulforhodamine B assay relative to control
# A549 = assay: Cytotoxicity against human A549 cells assessed as cell viability at 10 uM incubated for 48 hrs by sulforhodamine B assay relative to control
# EKVX = assay: Cytotoxicity against human EKVX cells assessed as cell viability at 10 uM incubated for 48 hrs by sulforhodamine B assay relative to control
# HOP-62 = assay: Cytotoxicity against human HOP-62 cells assessed as cell viability at 10 uM incubated for 48 hrs by sulforhodamine B assay relative to control
# HOP-92 = assay: Cytotoxicity against human HOP-92 cells assessed as cell viability at 10 uM incubated for 48 hrs by sulforhodamine B assay relative to control
# NCI-H226 = assay: Cytotoxicity against human NCI-H226 cells assessed as cell viability at 10 uM incubated for 48 hrs by sulforhodamine B assay relative to control
# NCI-H23 = assay: Cytotoxicity against human NCI-H23 cells assessed as cell viability at 10 uM incubated for 48 hrs by sulforhodamine B assay relative to control
# NCI-H460 = assay: Cytotoxicity against human NCI-H460 cells assessed as cell viability at 10 uM incubated for 48 hrs by sulforhodamine B assay relative to control
# NCI-H522 = assay: Cytotoxicity against human NCI-H522 cells assessed as cell viability at 10 uM incubated for 48 hrs by sulforhodamine B assay relative to control
# COLO 205 = assay: Cytotoxicity against human COLO 205 cells assessed as cell viability at 10 uM incubated for 48 hrs by sulforhodamine B assay relative to control
# KM12 = assay: Cytotoxicity against human KM12 cells assessed as cell viability at 10 uM incubated for 48 hrs by sulforhodamine B assay relative to control
# SW-620 = assay: Cytotoxicity against human SW-620 cells assessed as cell viability at 10 uM incubated for 48 hrs by sulforhodamine B assay relative to control
# SF-268 = assay: Cytotoxicity against human SF-268 cells assessed as cell viability at 10 uM incubated for 48 hrs by sulforhodamine B assay relative to control
# SNB-19 = assay: Cytotoxicity against human SNB-19 cells assessed as cell viability at 10 uM incubated for 48 hrs by sulforhodamine B assay relative to control
# SNB-75 = assay: Cytotoxicity against human SNB-75 cells assessed as cell viability at 10 uM incubated for 48 hrs by sulforhodamine B assay relative to control
# U-251 = assay: Cytotoxicity against human U-251 cells assessed as cell viability at 10 uM incubated for 48 hrs by sulforhodamine B assay relative to control
smiles,measurement,setting,value
O=S(=O)(NCCNc1nccc(-c2c(-c3cccc(F)c3)nc3sccn23)n1)c1ccc(F)cc1,viability at 10 µM,MDA-MB-468,63.1%
same,viability at 10 µM,BT-549,78.6%
same,viability at 10 µM,Hs-578T,68%
same,viability at 10 µM,MDA-MB-231,76.6%
same,viability at 10 µM,DU-145,52.4%
same,viability at 10 µM,PC-3,51.4%
same,viability at 10 µM,TK-10,80.4%
same,viability at 10 µM,SN12C,49.2%
same,viability at 10 µM,ACHN,35.8%
same,viability at 10 µM,786-0,58.7%
same,viability at 10 µM,NCI/ADR-RES,66.7%
same,viability at 10 µM,OVCAR-8,47.3%
same,viability at 10 µM,OVCAR-5,92.5%
same,viability at 10 µM,OVCAR-4,59.3%
same,viability at 10 µM,OVCAR-3,67.2%
same,viability at 10 µM,IGROV-1,11.3%
same,viability at 10 µM,UACC-62,44.4%
same,viability at 10 µM,SK-MEL-28,81.1%
same,viability at 10 µM,MDA-MB-435,31.5%
same,viability at 10 µM,M14,67.8%
same,viability at 10 µM,CCRF-CEM,54.7%
same,viability at 10 µM,HL-60(TB),95.1%
same,viability at 10 µM,K562,38.8%
same,viability at 10 µM,MOLT-4,41.1%
same,viability at 10 µM,RPMI-8226,63.4%
same,viability at 10 µM,SR,38%
same,viability at 10 µM,A549,32.1%
same,viability at 10 µM,EKVX,62.7%
same,viability at 10 µM,HOP-62,80.1%
same,viability at 10 µM,HOP-92,84.8%
same,viability at 10 µM,NCI-H226,45.6%
same,viability at 10 µM,NCI-H23,79.3%
same,viability at 10 µM,NCI-H460,35%
same,viability at 10 µM,NCI-H522,67%
same,viability at 10 µM,COLO 205,39.5%
same,viability at 10 µM,KM12,40.1%
same,viability at 10 µM,SW-620,63%
same,viability at 10 µM,SF-268,53.8%
same,viability at 10 µM,SNB-19,67.4%
same,viability at 10 µM,SNB-75,67.7%
same,viability at 10 µM,U-251,58.4%
O=S(=O)(NCCCNc1nccc(-c2c(-c3cccc(F)c3)nc3sccn23)n1)c1ccc(F)cc1,viability at 10 µM,MDA-MB-468,77.4%
same,viability at 10 µM,BT-549,79.9%
same,viability at 10 µM,Hs-578T,90.1%
same,viability at 10 µM,MDA-MB-231,94.2%
same,viability at 10 µM,DU-145,84.5%
same,viability at 10 µM,PC-3,58.9%
same,viability at 10 µM,TK-10,99.7%
same,viability at 10 µM,SN12C,71.5%
same,viability at 10 µM,ACHN,64.2%
same,viability at 10 µM,786-0,73.6%
same,viability at 10 µM,NCI/ADR-RES,60%
same,viability at 10 µM,OVCAR-8,49.8%
same,viability at 10 µM,OVCAR-5,130%
same,viability at 10 µM,OVCAR-4,65.7%
same,viability at 10 µM,OVCAR-3,83.5%
same,viability at 10 µM,IGROV-1,36.9%
same,viability at 10 µM,UACC-62,35.4%
same,viability at 10 µM,SK-MEL-28,96.9%
same,viability at 10 µM,MDA-MB-435,50.4%
same,viability at 10 µM,M14,59.4%
same,viability at 10 µM,CCRF-CEM,53.7%
same,viability at 10 µM,HL-60(TB),103%
same,viability at 10 µM,K562,41.6%
same,viability at 10 µM,MOLT-4,47.1%
same,viability at 10 µM,RPMI-8226,51%
same,viability at 10 µM,SR,95.8%
same,viability at 10 µM,A549,74%
same,viability at 10 µM,EKVX,80.4%
same,viability at 10 µM,HOP-62,101%
same,viability at 10 µM,HOP-92,102%
same,viability at 10 µM,NCI-H226,56.2%
same,viability at 10 µM,NCI-H23,83.7%
same,viability at 10 µM,NCI-H460,87.8%
same,viability at 10 µM,NCI-H522,54%
same,viability at 10 µM,COLO 205,43.7%
same,viability at 10 µM,KM12,62.7%
same,viability at 10 µM,SW-620,106%
same,viability at 10 µM,SF-268,73.9%
same,viability at 10 µM,SNB-19,95.9%
same,viability at 10 µM,SNB-75,98.5%
same,viability at 10 µM,U-251,90.6%
